Assay results: article PMC9019904, “AD Informer Set: Chemical tools to facilitate Alzheimer's disease drug discovery” (Alzheimer's & Dementia : Translational Research & Clinical …, 2022)
In brackets after ≈: the same amount, converted by molar mass.

What was measured:
[1] = test system: BV2 (mouse microglia) cell line; assay: pHrodo-myelin phagocytosis/cell viability high content imaging assay: viability (cell count, nuclear area, nuclear intensity)
Method in brief: (§1)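 Cells adhered overnight, then were exposed to compounds at a single 10 μM for 48 h in total, with pHrodo-myelin added for the last 20 h. High-content imaging gave cell count per well as the main viability measure plus mean nuclear intensity per cell. Duplicate wells were averaged and expressed as % of untreated control.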

[2] = test system: HMC3 (human microglia) cell line; assay: as above
Method in brief: as §1

[3] = Kinetic solubility in aqueous buffer pH 7.4 by total chemiluminescent nitrogen determination (Analiza); conditions: aqueous buffer, pH 7.4, aqueous buffer, kinetic from dmso stock
[4] = test system: BV2 (mouse microglia) cell line; assay: pHrodo-myelin phagocytosis/cell viability high content imaging assay: phagocytosis signal; type: cell-based
Method in brief: (§2)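 HCI read-out ~22 h post pHrodo-myelin; phagocytosis + viability simultaneously; 3 parameters extracted; intensity up = early apoptosis, down = later apoptosis.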

[5] = test system: HMC3 (human microglia) cell line; assay: as above; type: cell-based
Method in brief: as §2

[6] = BV2, 10 μM, cell count <70% control
[7] = HMC3, 10 μM, cell count <70% control

| Structure (SMILES) | solubility kinetic [3] [µM] | Mouse microglial cytotoxicity at 10 μM (<70% control) ([1]; BV2, 10 μM) | Human microglial cytotoxicity at 10 μM (<70% control) ([2]; HMC3, 10 μM) | Inhibition of mouse microglial phagocytosis at 10 μM (<70% control) ([4]; BV2, 10 μM) | Inhibition of human microglial phagocytosis at 10 μM (<70% control) ([5]; HMC3, 10 μM) | Mouse microglial cytotoxicity at 10 μM (<70% control) ([1]; 10 μM, BV2) | Human microglial cytotoxicity at 10 μM (<70% control) ([2]; 10 μM, HMC3) | Inhibition of mouse microglial phagocytosis at 10 μM (<70% control) ([4]; 10 μM, BV2) | Inhibition of human microglial phagocytosis at 10 μM (<70% control) ([5]; 10 μM, HMC3) | Mouse microglial cytotoxicity at 10 μM (<70% control) [1, 6] | Human microglial cytotoxicity at 10 μM (<70% control) [2, 7] | Stimulation of mouse microglial phagocytosis at 10 μM (>150% control) ([4]; BV2, 10 μM) | Stimulation of mouse microglial phagocytosis at 10 μM (>150% control) ([4]; 10 μM, BV2) |
| --- | --- | --- | --- | --- | --- | --- | --- | --- | --- | --- | --- | --- | --- |
| CCN1CCN(Cc2ccc(NC(=O)c3ccc(C)c(NC(=O)c4cncc(-c5cccs5)c4)c3)cc2C(F)(F)F)CC1 [ALW-II-41-27] | 3.7 (≈ 2.25 µg/mL) | Y (The compound was found to be cytotoxic (cell count threshold: <70% control) when murine immortalized microglial cells were dosed at 10 μM (Y: yes)) | Y (The compound was found to be cytotoxic (cell count threshold: <70% control) when human immortalized microglial cells were dosed at 10 μM (Y: yes)) | Y (The compound was found to inhibit phagocytosis (response threshold: <70% control) when murine immortalized microglial cells were dosed at 10 μM (Y: yes)) | Y (The compound was found to inhibit phagocytosis (response threshold: <70% control) when human immortalized microglial cells were dosed at 10 μM (Y: yes)) |  |  |  |  |  |  |  |  |
| C=CC(=O)Nc1cc2c(Nc3ccc(F)c(Cl)c3)ncnc2cc1OCCCN1CCOCC1 [Canertinib] | 11 (≈ 5.35 µg/mL) | Y (The compound was found to be cytotoxic (cell count threshold: <70% control) when murine immortalized microglial cells were dosed at 10 μM (Y: yes)) | Y (The compound was found to be cytotoxic (cell count threshold: <70% control) when human immortalized microglial cells were dosed at 10 μM (Y: yes)) | Y (The compound was found to inhibit phagocytosis (response threshold: <70% control) when murine immortalized microglial cells were dosed at 10 μM (Y: yes)) | Y (The compound was found to inhibit phagocytosis (response threshold: <70% control) when human immortalized microglial cells were dosed at 10 μM (Y: yes)) |  |  |  |  |  |  |  |  |
| Cc1cc(Nc2ncc(Cl)c(Nc3ccccc3S(=O)(=O)C(C)C)n2)c(OC(C)C)cc1C1CCNCC1 [Ceritinib] | 25.1 (≈ 14 µg/mL) | Y (The compound was found to be cytotoxic (cell count threshold: <70% control) when murine immortalized microglial cells were dosed at 10 μM (Y: yes)) | Y (The compound was found to be cytotoxic (cell count threshold: <70% control) when human immortalized microglial cells were dosed at 10 μM (Y: yes)) | Y (The compound was found to inhibit phagocytosis (response threshold: <70% control) when murine immortalized microglial cells were dosed at 10 μM (Y: yes)) | Y (The compound was found to inhibit phagocytosis (response threshold: <70% control) when human immortalized microglial cells were dosed at 10 μM (Y: yes)) |  |  |  |  |  |  |  |  |
| CC1(COc2ccc3c(c2)ncn3-c2ccc3cccc(N4CCC(N)CC4)c3n2)COC1 [Crenolanib] | 115 (≈ 51.1 µg/mL) |  |  |  |  | Y (The compound was found to be cytotoxic (cell count threshold: <70% control) when murine immortalized microglial cells were dosed at 10 μM (Y: yes)) | Y (The compound was found to be cytotoxic (cell count threshold: <70% control) when human immortalized microglial cells were dosed at 10 μM (Y: yes)) | Y (The compound was found to inhibit phagocytosis (response threshold: <70% control) when murine immortalized microglial cells were dosed at 10 μM (Y: yes)) | Y (The compound was found to inhibit phagocytosis (response threshold: <70% control) when human immortalized microglial cells were dosed at 10 μM (Y: yes)) |  |  |  |  |
| c1ccc(CNc2nc(NCc3ccccc3)c3ccccc3n2)cc1 [DBeQ] | 1.9 (≈ 0.647 µg/mL) |  |  | Y (The compound was found to inhibit phagocytosis (response threshold: <70% control) when murine immortalized microglial cells were dosed at 10 μM (Y: yes)) | Y (The compound was found to inhibit phagocytosis (response threshold: <70% control) when human immortalized microglial cells were dosed at 10 μM (Y: yes)) |  |  |  |  | Y (The compound was found to be cytotoxic (cell count threshold: <70% control) when murine immortalized microglial cells were dosed at 10 μM (Y: yes)) | Y (The compound was found to be cytotoxic (cell count threshold: <70% control) when human immortalized microglial cells were dosed at 10 μM (Y: yes)) |  |  |
| CSc1ccc2c(c1)c(CCN)c(C)n2Cc1ccc(Cl)cc1Cl.Cl [K149] | 5.7 |  |  |  |  | Y (The compound was found to be cytotoxic (cell count threshold: <70% control) when murine immortalized microglial cells were dosed at 10 μM (Y: yes)) | Y (The compound was found to be cytotoxic (cell count threshold: <70% control) when human immortalized microglial cells were dosed at 10 μM (Y: yes)) | Y (The compound was found to inhibit phagocytosis (response threshold: <70% control) when murine immortalized microglial cells were dosed at 10 μM (Y: yes)) | Y (The compound was found to inhibit phagocytosis (response threshold: <70% control) when human immortalized microglial cells were dosed at 10 μM (Y: yes)) |  |  |  |  |
| COc1cccc2c(NCc3ccccc3)nc(-n3c(N)nc4ccccc43)nc12 [ML 240] | < 0.4 |  |  | Y (The compound was found to inhibit phagocytosis (response threshold: <70% control) when murine immortalized microglial cells were dosed at 10 μM (Y: yes)) | Y (The compound was found to inhibit phagocytosis (response threshold: <70% control) when human immortalized microglial cells were dosed at 10 μM (Y: yes)) |  |  |  |  | Y (The compound was found to be cytotoxic (cell count threshold: <70% control) when murine immortalized microglial cells were dosed at 10 μM (Y: yes)) | Y (The compound was found to be cytotoxic (cell count threshold: <70% control) when human immortalized microglial cells were dosed at 10 μM (Y: yes)) |  |  |
| CO[C@H]1C[C@@H]2CC[C@@H](C)[C@@](O)(O2)C(=O)C(=O)N2CCCC[C@H]2C(=O)O[C@H]([C@H](C)C[C@@H]2CC[C@@H](O)[C@H](OC)C2)CC(=O)[C@H](C)/C=C(\C)[C@@H](O)[C@@H](OC)C(=O)[C@H](C)C[C@H](C)/C=C/C=C/C=C/1C [Sirolimus] | 19.8 (≈ 18.1 µg/mL) |  |  |  |  | Y (The compound was found to be cytotoxic (cell count threshold: <70% control) when murine immortalized microglial cells were dosed at 10 μM (Y: yes)) |  |  | Y (The compound was found to inhibit phagocytosis (response threshold: <70% control) when human immortalized microglial cells were dosed at 10 μM (Y: yes)) |  |  |  | Y (The compound was found to stimulate phagocytosis (response threshold: >150% control) when murine immortalized microglial cells were dosed at 10 μM (Y: yes)) |

Now from value to molecule, other results behind:

| solubility kinetic [3] [µM] | Structure (SMILES) | Mouse microglial cytotoxicity at 10 μM (<70% control) ([1]; BV2, 10 μM) | Human microglial cytotoxicity at 10 μM (<70% control) ([2]; HMC3, 10 μM) | Inhibition of mouse microglial phagocytosis at 10 μM (<70% control) ([4]; BV2, 10 μM) | Inhibition of human microglial phagocytosis at 10 μM (<70% control) ([5]; HMC3, 10 μM) | Mouse microglial cytotoxicity at 10 μM (<70% control) ([1]; 10 μM, BV2) | Human microglial cytotoxicity at 10 μM (<70% control) ([2]; 10 μM, HMC3) | Inhibition of mouse microglial phagocytosis at 10 μM (<70% control) ([4]; 10 μM, BV2) | Inhibition of human microglial phagocytosis at 10 μM (<70% control) ([5]; 10 μM, HMC3) | Mouse microglial cytotoxicity at 10 μM (<70% control) [1, 6] | Human microglial cytotoxicity at 10 μM (<70% control) [2, 7] | Stimulation of mouse microglial phagocytosis at 10 μM (>150% control) ([4]; BV2, 10 μM) | Stimulation of mouse microglial phagocytosis at 10 μM (>150% control) ([4]; 10 μM, BV2) |
| --- | --- | --- | --- | --- | --- | --- | --- | --- | --- | --- | --- | --- | --- |
| 3.9 (≈ 1.8 µg/mL) | Fc1ccc(C(CCCNCC2CCc3[nH]c4ccc(F)cc4c3C2)c2ccc(F)cc2)cc1 (stereo not drawn) [MSC1094308] |  |  | Y (The compound was found to inhibit phagocytosis (response threshold: <70% control) when murine immortalized microglial cells were dosed at 10 μM (Y: yes)) | Y (The compound was found to inhibit phagocytosis (response threshold: <70% control) when human immortalized microglial cells were dosed at 10 μM (Y: yes)) |  |  |  |  | Y (The compound was found to be cytotoxic (cell count threshold: <70% control) when murine immortalized microglial cells were dosed at 10 μM (Y: yes)) | Y (The compound was found to be cytotoxic (cell count threshold: <70% control) when human immortalized microglial cells were dosed at 10 μM (Y: yes)) |  |  |
| 3.8 (≈ 1.98 µg/mL) | Cc1cc(OCc2nnc(SC3CCCC3)n2-c2cccnc2)ccc1-c1ccc(S(C)(=O)=O)cc1 [NMS-873] |  |  | Y (The compound was found to inhibit phagocytosis (response threshold: <70% control) when murine immortalized microglial cells were dosed at 10 μM (Y: yes)) | Y (The compound was found to inhibit phagocytosis (response threshold: <70% control) when human immortalized microglial cells were dosed at 10 μM (Y: yes)) |  |  |  |  | Y (The compound was found to be cytotoxic (cell count threshold: <70% control) when murine immortalized microglial cells were dosed at 10 μM (Y: yes)) | Y (The compound was found to be cytotoxic (cell count threshold: <70% control) when human immortalized microglial cells were dosed at 10 μM (Y: yes)) |  |  |
| 18.4 (≈ 8.32 µg/mL) | O=C1C=C(NCCc2cc(Br)c(O)c(Br)c2)C(=O)c2ncccc21 [NSC668394] | Y (The compound was found to be cytotoxic (cell count threshold: <70% control) when murine immortalized microglial cells were dosed at 10 μM (Y: yes)) | Y (The compound was found to be cytotoxic (cell count threshold: <70% control) when human immortalized microglial cells were dosed at 10 μM (Y: yes)) |  | Y (The compound was found to inhibit phagocytosis (response threshold: <70% control) when human immortalized microglial cells were dosed at 10 μM (Y: yes)) |  |  |  |  |  |  | Y (The compound was found to stimulate phagocytosis (response threshold: >150% control) when murine immortalized microglial cells were dosed at 10 μM (Y: yes)) |  |
